Patent US20050208496A1, “Methods of testing for bronchial asthma or chronic obstructive pulmonary disease” (Genox Research, Inc., priority 2002, published 2005)

Key:
pendrin gene = test: Quantitative PCR (ABI 7700) of the pendrin gene in epithelial cells cultured by the AI or IMM method; type: cell-based, human; details: respiratory tract epithelial cells
Excerpt: Quantitative PCR assays were further performed with ABI 7700 using two batches of epithelial cells cultured respectively by the AI method and the IMM method described in Example 1 to quantitatively determine the expression level of the pendrin gene selected in Example 5. The primers and TaqMan probe used in the assays with ABI 7700 were designed based on the information on the sequence of the pendrin gene utilizing Primer Express (PE Biosystems). The 5′ and 3′ ends of the TaqMan probe were labeled with FAM (6-carboxy-fluorescein) and TAMRA (6-carboxy-N,N,N′,N′-tetramethylrhodamine), respectively. The sequences of oligonucleotides of the forward primer (F), reverse primer (R), and TaqMan probe (TP) for the pendrin gene are shown below. The GenBank accession number corresponding to the nucleotide sequence of each marker gene is shown in parenthesis after the name.
Total RNA extracted by the aforementioned method was treated with DNase (Nippon Gene). […]
Additionally, to correct the differences of cDNA concentration in the sample, a similar quantitative analysis was performed for β-actin gene and glyceraldehyde-3-phosphate dehydrogenase (GAPDH) gene as internal standards for correction. By correcting based on the number of copies of these genes, the number of copies of the genes of interest was calculated. […]

[1] = tested on: respiratory epithelial cells; test: Goblet cell differentiation of respiratory epithelial cells upon IL-13 stimulation (PAS and Alcian blue staining); type: cell-based, human
Description: After the cell count was determined, cells were plated at the cell density of 10^6 cells/cm^2 on a filter membrane with 0.45-μm pores, being attached to the bottom of a Millicell-HA Culture Plate Insert (Millipore Corp.). At the time of plating, Vitrogen gel (Vitrogen from Celtrix Pharmaceuticals, Inc. was used after gelation) was placed on the filter membrane as a growth-supporting material, and the epithelial cells were placed thereon. The Millicell inserts were placed in a 24-well plate (Falcon) containing a culture medium, which was a 1:1 mixture of Dulbecco's MEM and Ham F12 containing 2% Ultroser G and the antibiotics, penicillin, streptomycin, gentamycin, and amphotericin B. The cells were incubated overnight. Then, cells that had not adhered to the collagen gel were removed, and the remaining cells were cultured while the cell side was in contact with air (air interface) for approximately two weeks (See FIG. 1). The basic procedures of the AI method by which respiratory epithelial cells were cultured were the same as those described in the following reports:
As basically done in the AI method, Vitrogen gel was placed on a filter membrane, and epithelial cells were placed thereon. The IMM method is different from the AI method in the point that the IMM method comprises adding a medium to cover the epithelial cells. […]

[2] = tested on: mouse OVA antigen-exposed bronchial hypersensitivity model; test: Quantitative PCR (ABI 7700) of selected genes using cDNA of the mouse OVA antigen-exposed bronchial hypersensitivity model; type: in vivo; details: OVA-administered group
Description: Eighty-eight genes, most of which were recognized as genes whose expression levels were altered in human and mouse, were selected from the genes narrowed down in Section 4. A quantitative PCR assay was carried out with ABI 7700 using cDNA from the human goblet cell differentiation model and using cDNA from the mouse OVA antigen-exposed bronchial hypersensitivity model.
The primers and TaqMan probe used in the assay with ABI 7700 were designed based on the information on the sequence of each gene utilizing Primer Express (PE Biosystems). The 5′ and 3′ ends of the TaqMan probe were labeled with FAM (6-carboxy-fluorescein) and TAMRA (6-carboxy-N,N,N′,N′-tetramethylrhodamine), respectively. The nucleotide sequences of oligonucleotides for the forward primer (F), reverse primer (R), and TaqMan probe (TP) for each gene are shown below. […]
Furthermore, similar quantitative analyses for the β-actin gene and the glyceraldehyde-3-phosphate dehydrogenase (GAPDH) gene as internal standards for correction were carried out to correct the difference of cDNA concentration in a sample. The copy number of the gene of interest was determined by correcting based on the determined copy numbers for the genes. […]

Substance	pendrin gene expression level, elevation as a result of IL-13 stimulation (quantitative PCR) (pendrin gene)	differentiation into goblet cells (PAS and Alcian blue staining) ([1]; AI method, IL-13 50 ng/mL, after 14 days of incubation)	goblet cell differentiation ([1]; IMM method)	expression levels of the respective genes (quantitative PCR, corrected with β-actin) [2]
IL-13: human IL-13 (Peprotech, Inc.) added to the medium at 50 ng/mL to stimulate respiratory epithelial cells	hundred folds or more	differentiated into goblet cells	not observed	–
ovalbumin [OVA antigen, ovalbumin antigen used for sensitization and inhalation to induce bronchial hypersensitivity in mice]	–	–	–	significant variations
